According to US20260130966A1, “NOVEL THERAPEUTICS FOR PARASITIC INFECTION” (UNIVERSITY OF SOUTH FLORIDA, priority 2022, published 2026):
Values after ≈ are worked out from the molar mass of the structure shown. Values joined by “and” are separate entries in the source; they are usually repeats but may differ in a detail not shown here. Identical values can stand only once. “Also recorded” adds a separate entry of the source. Like-named read-outs stand apart in the source and are kept apart here. Where a SMILES comes first, the peptide text is derived from it. [ ]: non-standard residue; d: D form. The star is where a group is joined. ξ: configuration not given here. Phe(Nα-CONH2) = NC(=O)N[C@@H](Cc1ccccc1)C(=O)*; NMeI = CC[C@H](C)[C@H](NC)C(=O)O; NMeξIle = CC[C@H](C)C(NC)C(=O)O; X1 = CN(/C=C\c1c[nH]c2ccccc12)*; NMeL = CN[C@@H](CC(C)C)C(=O)O; NMeV = CN[C@H](C(=O)O)C(C)C; NMeA = CN[C@@H](C)C(=O)O; For = O=C*

How the values were obtained:
P. falciparum 3D7 = experiment: microbe, parasite or virus in culture; assay type: cell-based, Plasmodium falciparum
Method: (§1) For parasite suspension, P. falciparum malaria strains were grown under normal conditions as previously described by Trager and Jensen with some modifications.” Briefly, parasites were suspended in RPMI 1640 supplemented with 0.23% sodium bicarbonate, […] hypoxanthine and 0.5% albumax (CM), 4% packed washed red blood cells by volume and incubated in a continuous gas incubator set to normal conditions (5% O2, 5% CO2, […]). Parasites were prepared for drug susceptibility assay by highly synchronizing schizonts 16 h before experiment start by using a 70% percoll method. Ring stage parasites were then resuspended in culture with fresh CM containing 2% hematocrit and 0.5% parasitemia.
(§2) Antimalaria activity was assessed against reference strains of NF54, 3D7 and Dd2 using an adaptation of the sensitivity assay of Desjardins et al. using SybrGreen fluorescence as an assessment of parasite growth.^32 NF54 original isolate was obtained from a patient living near Schiphol Airport, Amsterdam and its clonal isolate 3D7 are generally considered to be drug sensitive, though 3D7 does convey resistance to sulfadoxine. Dd2 derived from the parent W2, is multi-drug-resistant line originating from the Indochina III/CDC isolate, which contain point mutations in pfcrt as well as amplifications in pfmdr1 and GTP cyclohydrolase. Briefly, compounds were diluted to 10 μg/mL and serially diluted along a microtiter plate before adding in 100 μL/well of the parasite suspension. Parasite growth was compared to controls incubated at 37° C. and normal culture conditions (5% O2, 5% CO2, 90% N2) for 72 h. Plates were frozen and thawed before adding a final 1× concentration of SybrGreen in lysis buffer and read on the CLARIOstar fluorescence plate reader (Ex/Em 484-15/528-15) following a 45 min incubation at room temperature. Drug EC50 values were calculated by interpolation of the probit transformation of the log(dose)-response curve using the MARS software provided by BMG.

P. falciparum Dd2 = experiment: microbe, parasite or virus in culture; assay type: cell-based, Plasmodium falciparum
Method: as §1, §2

P. falciparum NF54 = experiment: microbe, parasite or virus in culture; assay type: cell-based, Plasmodium falciparum
Method: as §1, §2

[1] = test system: murine J774 macrophage cells; experiment: Cytotoxicity testing against murine J774 macrophage cells (CellTiter 96); assay type: cell-based
Method: The isolated compounds were each tested for cytotoxicity using mammalian J774A.1 cell lines (ATCC TIB-67™) in complete media; RPMI 1640 medium with phenol red containing L-glutamine and then supplemented with 10% fetal bovine serum (CM). Cells were seeded at 5×10^5 cell/mL and plated in a 96-well format with 100 μL/well fresh media on day 0 and were incubated overnight at 37° C., 5% CO2 for adherence. Following 24 h incubation, spent media was removed and 100 μL of fresh media with test compounds were serially diluted 1:2 with a starting concentration of 10 μg/mL was added to the cells and incubated for an additional 68 h before adding in 20 μL CellTiter 96® AQueous One Solution Cell Proliferation Assay reagent (Promega). Cells were incubated for an additional 4 h before reading absorbance (490) nm on the CLARIOstar plate reader.

[2] = test system: Blood-Stage P. falciparum Strains; experiment: Initial blood-stage screen against several P. falciparum strains; assay type: cell-based, Plasmodium falciparum
Method: as §1, §2

J774.A1 macrophages = experiment: Cytotoxicity screen against Leishmania host cell line; assay type: cell-based; conditions: toxicity to J774.A1 macrophages
Method: (§3) The Leishmania donovani infected macrophage assay and cytotoxicity screen were conducted as previously described.

[3] = test system: ESKAPE panel of bacterial pathogens; experiment: ESKAPE panel antibacterial screen; assay type: cell-based
C. difficile UK6 = experiment: C. difficile MIC screening; assay type: cell-based, Clostridium difficile
HepG2 = experiment: MTT cytotoxicity, human liver HepG2 cells; assay type: cell-based
Method: (§4) The cytotoxicity of the metabolites to human liver cells and kidney cells was determined using an MTT based-In Vitro Toxicology Assay Kit (Sigma-Aldrich, St. Louis, MO, USA) following the manufacturing instructions. The human kidney HEK293T cells and the human liver HEPGZ cells were used for the evaluation in this study. Both cell samples were maintained and suspended in Dulbecco's Modified Eagle Medium (DMEM with 4.5 g/L glucose, L-glutamine and sodium pyruvate, Corning, Manassas, VA, USA) containing 10% fetal bovine serum (Thermo Scientific) and 1% penicillin/streptomycin at 37° C. under 5% CO2 atmosphere. The cells were plated on a 96-well plate with approximately 5×10^3-1×10^4 cells in each well, and incubated at 37° C. overnight. […] After that, the liquid in each well of the plate was removed carefully and thoroughly, then the cells in the wells were treated with 100 μL of DMSO, and incubated at 37° C. for 15 m. […] Bio Tek Instruments, Inc. Winooski VT). Cells treated with vancomycin, a common option for treating CDI in clinical settings, were also included in the MTT tests as a control. Cell survival and the IC50 were calculated according to the method used in a previous publication: Survival of cells (%)=Drug-treated group OD540/control group OD540×100.

HEK293T = experiment: MTT cytotoxicity, human kidney HEK293T cells; assay type: cell-based
Method: as §4

Leishmania donovani = Leishmania donovani infected macrophage assay; assay type: cell-based
Method: as §3

[4] = test system: liver stage of Plasmodium falciparum; conditions: previous investigation; cited from earlier work
[5] = cytotoxicity, murine J774 macrophage cells, read-out: EC50

| Compound | IC50 (P. falciparum 3D7; 3D7) [µM] | IC50 (P. falciparum Dd2; Dd2) [µM] | IC50 (P. falciparum NF54; NF54) [µM] | EC50 (μg/mL) [1] [µg/mL] | EC50 [1, 5] [µM] | further results |
| --- | --- | --- | --- | --- | --- | --- |
| CC[C@H](C)C(C(=O)N(C)[C@H](C(=O)NC)[C@@H](C)CC)N(C)C(=O)[C@H](C(C)C)N(C)C(=O)[C@H](C)N(C)C(=O)[C@H](C(C)C)N(C)C(=O)[C@H](C(C)C)N(C)C(=O)[C@@H](NC=O)C(C)C (stereo partly shown) [Compound P4, shagamide B] (For-V[NMeV][NMeV][NMeA][NMeV][NMeξIle][NMeI]-NHMe) | > 10 | 4.37 | > 10 | >100 | > 100 | blood-stage anti-malarial activity [2]: did not show significant activity; also recorded: inactive |
| CC[C@H](C)[C@@H](C(=O)NC)N(C)C(=O)[C@H](C)N(C)C(=O)[C@H](C(C)C)N(C)C(=O)[C@H](C(C)C)N(C)C(=O)[C@H](C)N(C)C(=O)[C@H](C(C)C)N(C)C(=O)[C@H](C(C)C)N(C)C(=O)[C@H](C)N(C)C(=O)[C@H](C)NC(C)=O [Compound P7, shagamide E] (Ac-A[NMeA][NMeV][NMeV][NMeA][NMeV][NMeV][NMeA][NMeI]-NHMe) | > 10 | > 10 | > 10 | >100 | > 100 | blood-stage anti-malarial activity [2]: did not show significant activity |
| Cc1cc2c(c3c1[C@H](CO[N+](=O)[O-])OC3=O)CC(C)(C)C2 [Compound C4, alcyopterosin E] | – | – | – | – | – | IC50 (J774.A1 macrophages): 62 µM; activity against the ESKAPE panel [3]: inactive; activity against Clostridium difficile (C. difficile UK6): potent activity; CC50 (HepG2): 331 µM; CC50 (HEK293T): 570 µM |
| Cc1cc2c(c3c1[C@@H](CO)OC3=O)CC(C)(C)C2 [Compound C3, alcyopterosin V] | – | – | – | – | – | IC50 (J774.A1 macrophages): 110 µM; activity against the ESKAPE panel [3]: inactive; activity against Clostridium difficile (C. difficile UK6): potent activity; MIC (C. difficile UK6; C. difficile): 8.1 µM (≈ 2 µg/mL); CC50 (HepG2): 288 µM; CC50 (HEK293T): 220 µM |
| Cc1cc2c(c3c1[C@@H](CCl)OC3=O)CC(C)(C)[C@@H]2O [Compound C9, alcyopterosin L] | – | – | – | – | – | IC50 (Leishmania donovani): 2.4 µM |
| CNC(=O)[C@H](C(C)C)N(C)C(=O)[C@H](C(C)C)N(C)C(=O)[C@H](C(C)C)N(C)C(=O)[C@H](C)N(C)C(=O)[C@H](C)N(C)C(=O)[C@H](CC(C)C)N(C)C(=O)[C@H](C(C)C)N(C)C(=O)[C@H](Cc1ccccc1)NC(N)=O [Compound P6, shagamide D] ({Phe(Nα-CONH2)}-[NMeV][NMeL][NMeA][NMeA][NMeV][NMeV][NMeV]-NHMe) | > 10 | 2.02 | 3.05 | >100 | > 100 | activity against the 3D7 strain (P. falciparum 3D7; blood stage, strain 3D7): inactive |
| CNC(=O)[C@H](C(C)C)N(C)C(=O)[C@H](C(C)C)N(C)C(=O)[C@H](C(C)C)N(C)C(=O)[C@H](C)N(C)C(=O)[C@H](C)N(C)C(=O)[C@H](CC(C)C)N(C)C(=O)[C@H](C(C)C)N(C)C(=O)[C@H](Cc1ccccc1)NC=O [Compound P5, shagamide C] (For-F[NMeV][NMeL][NMeA][NMeA][NMeV][NMeV][NMeV]-NHMe) | 2.52 | 1.07 | 3.73 | >100 | > 100 | inhibition of strain 3D7 (P. falciparum 3D7; blood stage, strain 3D7): 2.52 µg/mL |
| CCN(CC)CCCC(C)Nc1ccnc2cc(Cl)ccc12 (stereo not shown) [Chloroquine, reference compound] | – | – | – | – | – | IC50 (P. falciparum 3D7; Plasmodium falciparum, 3D7, read-out: IC50 Values against Blood-Stage P. falciparum Strains: 3D7): 0.03 µM; IC50 (P. falciparum Dd2; Plasmodium falciparum, DD2, read-out: IC50 Values against Blood-Stage P. falciparum Strains: Dd2): 1.28 µM; IC50 (P. falciparum NF54; Plasmodium falciparum, NF54, read-out: IC50 Values against Blood-Stage P. falciparum Strains: NF54): 0.03 µM; EC50 ([1]; Mus musculus, J774): 16.3 µg/mL and 51 µM |
| 4,12-Bis(acetyl)alcyopterosin O [Compound C8] | – | – | – | – | – | IC50 (Leishmania donovani): 1.2 µM |
| Cc1cc2c(c(C)c1CCO[N+](=O)[O-])CC(C)(C)C2=O [Compound C6, alcyopterosin C] | – | – | – | – | – | IC50 (Leishmania donovani): 13 µM |
| CN[C@H](CC(C)C)C(=O)N[C@H]1C(=O)N[C@@H](CC(N)=O)C(=O)N[C@H]2C(=O)N[C@H]3C(=O)N[C@H](C(=O)N[C@H](C(=O)O)c4cc(O)cc(O)c4-c4cc3ccc4O)[C@H](O)c3ccc(c(Cl)c3)Oc3cc2cc(c3O[C@@H]2O[C@H](CO)[C@@H](O)[C@H](O)[C@H]2O[C@H]2C[C@](C)(N)[C@H](O)[C@H](C)O2)Oc2ccc(cc2Cl)[C@H]1O [Vancomycin, reference compound] | – | – | – | – | – | MIC (C. difficile UK6; Clostridioides difficile, UK6): 0.34 µM (≈ 0.493 µg/mL); toxicity to host cells (HepG2; HepG2, same concentrations alcyopterosins were assayed): non-toxic; toxicity to host cells (HEK293T; HEK293T, same concentrations alcyopterosins were assayed): non-toxic |
| CC[C@H](C)[C@@H](C(N)=O)N(C)C(=O)[C@H](C(C)C)N(C)C(=O)[C@H](CC(C)C)N(C)C(=O)[C@H](Cc1ccccc1)N(C)C(=O)[C@H](Cc1ccccc1)NC=O [Compound P3, shagamide A] | 2.1 | 1.72 | 2.61 | >100 | > 100 | activity against the 3D7 strain (P. falciparum 3D7; blood stage, strain 3D7): comparable activity |
| CC[C@H](C)[C@@H](C(=O)N(C)[C@@H](C)C(=O)N(C)[C@H](C(N)=O)C(C)C)N(C)C(=O)[C@H]([C@@H](C)CC)N(C)C(=O)[C@H](C)N(C)C(=O)[C@H](C(C)C)N(C)C(=O)[C@H](C)N(C)C(=O)[C@@H](NC(C)=O)C(C)C [Compound P8, shagamide F] (Ac-V[NMeA][NMeV][NMeA][NMeI][NMeI][NMeA][NMeV]-NH2) | > 10 | > 10 | > 10 | >100 | > 100 | blood-stage anti-malarial activity [2]: did not show significant activity |
| CCCCCCCCCCCCCCCCOP(=O)([O-])OCC[N+](C)(C)C [miltefosine, reference compound] | – | – | – | – | – | IC50 (Leishmania donovani; Macrophage): 6.2 µM |
| CC(=O)O[C@@H]1[C@H](OC(C)=O)[C@H]([C@H](C)CCCC(C)C)[C@@]2(C)C[C@@H](OC(C)=O)[C@H]3[C@@H](C[C@@H](O)[C@H]4CC=CC(=O)[C@]34C)[C@H]12 [Compound C5, alcyosterone] | – | – | – | – | – | activity against the ESKAPE panel [3]: inactive; IC50 (Leishmania donovani; Macrophage): 1.5 µM |
| CC[C@H](C)[C@@H](C(=O)N(C)/C=C\c1c[nH]c2ccccc12)N(C)C(=O)[C@H](C(C)C)N(C)C(=O)[C@H](C(C)C)N(C)C(=O)[C@H](CC(C)C)N(C)C(=O)[C@@H]1CCCN1C(=O)[C@H](Cc1ccccc1)NC(=O)[C@H](Cc1ccccc1)NC(C)=O [Compound P2, friomaramide B] (Ac-FFP[NMeL][NMeV][NMeV][NMeI]-X1) | 8.65 | 3.3 | 3.93 | 26.7 (≈ 24.6 µM) | – | EC50 [1]: 24.6 µM; blood-stage anti-malarial activity [2]: modest activity |
| CC[C@H](C)[C@@H](C(=O)N(C)/C=C\c1c[nH]c2ccccc12)N(C)C(=O)[C@H]([C@@H](C)CC)N(C)C(=O)[C@H](C)N(C)C(=O)[C@H](C(C)C)N(C)C(=O)[C@H](Cc1ccccc1)NC(C)=O [Compound P1, friomaramide A] (Ac-F[NMeV][NMeA][NMeI][NMeI]-X1) | – | – | – | – | – | blocking of liver stage parasite development [4]: comparable to the known drug primaquine |
